Measurements: ChEMBL document CHEMBL4665902, “Novel Heteroaryl Compounds for Treating Huntington's Disease” (ACS Med Chem Lett, 2020)

Target: Huntingtin (Homo sapiens, UniProt P42858)
Test: Inhibition of Huntingtin protein (unknown origin) incubated for overnight in presence of MW1/MAB2166 monoclonal antibody by MSD assay

Huntingtin, sequence (P42858 whole entry): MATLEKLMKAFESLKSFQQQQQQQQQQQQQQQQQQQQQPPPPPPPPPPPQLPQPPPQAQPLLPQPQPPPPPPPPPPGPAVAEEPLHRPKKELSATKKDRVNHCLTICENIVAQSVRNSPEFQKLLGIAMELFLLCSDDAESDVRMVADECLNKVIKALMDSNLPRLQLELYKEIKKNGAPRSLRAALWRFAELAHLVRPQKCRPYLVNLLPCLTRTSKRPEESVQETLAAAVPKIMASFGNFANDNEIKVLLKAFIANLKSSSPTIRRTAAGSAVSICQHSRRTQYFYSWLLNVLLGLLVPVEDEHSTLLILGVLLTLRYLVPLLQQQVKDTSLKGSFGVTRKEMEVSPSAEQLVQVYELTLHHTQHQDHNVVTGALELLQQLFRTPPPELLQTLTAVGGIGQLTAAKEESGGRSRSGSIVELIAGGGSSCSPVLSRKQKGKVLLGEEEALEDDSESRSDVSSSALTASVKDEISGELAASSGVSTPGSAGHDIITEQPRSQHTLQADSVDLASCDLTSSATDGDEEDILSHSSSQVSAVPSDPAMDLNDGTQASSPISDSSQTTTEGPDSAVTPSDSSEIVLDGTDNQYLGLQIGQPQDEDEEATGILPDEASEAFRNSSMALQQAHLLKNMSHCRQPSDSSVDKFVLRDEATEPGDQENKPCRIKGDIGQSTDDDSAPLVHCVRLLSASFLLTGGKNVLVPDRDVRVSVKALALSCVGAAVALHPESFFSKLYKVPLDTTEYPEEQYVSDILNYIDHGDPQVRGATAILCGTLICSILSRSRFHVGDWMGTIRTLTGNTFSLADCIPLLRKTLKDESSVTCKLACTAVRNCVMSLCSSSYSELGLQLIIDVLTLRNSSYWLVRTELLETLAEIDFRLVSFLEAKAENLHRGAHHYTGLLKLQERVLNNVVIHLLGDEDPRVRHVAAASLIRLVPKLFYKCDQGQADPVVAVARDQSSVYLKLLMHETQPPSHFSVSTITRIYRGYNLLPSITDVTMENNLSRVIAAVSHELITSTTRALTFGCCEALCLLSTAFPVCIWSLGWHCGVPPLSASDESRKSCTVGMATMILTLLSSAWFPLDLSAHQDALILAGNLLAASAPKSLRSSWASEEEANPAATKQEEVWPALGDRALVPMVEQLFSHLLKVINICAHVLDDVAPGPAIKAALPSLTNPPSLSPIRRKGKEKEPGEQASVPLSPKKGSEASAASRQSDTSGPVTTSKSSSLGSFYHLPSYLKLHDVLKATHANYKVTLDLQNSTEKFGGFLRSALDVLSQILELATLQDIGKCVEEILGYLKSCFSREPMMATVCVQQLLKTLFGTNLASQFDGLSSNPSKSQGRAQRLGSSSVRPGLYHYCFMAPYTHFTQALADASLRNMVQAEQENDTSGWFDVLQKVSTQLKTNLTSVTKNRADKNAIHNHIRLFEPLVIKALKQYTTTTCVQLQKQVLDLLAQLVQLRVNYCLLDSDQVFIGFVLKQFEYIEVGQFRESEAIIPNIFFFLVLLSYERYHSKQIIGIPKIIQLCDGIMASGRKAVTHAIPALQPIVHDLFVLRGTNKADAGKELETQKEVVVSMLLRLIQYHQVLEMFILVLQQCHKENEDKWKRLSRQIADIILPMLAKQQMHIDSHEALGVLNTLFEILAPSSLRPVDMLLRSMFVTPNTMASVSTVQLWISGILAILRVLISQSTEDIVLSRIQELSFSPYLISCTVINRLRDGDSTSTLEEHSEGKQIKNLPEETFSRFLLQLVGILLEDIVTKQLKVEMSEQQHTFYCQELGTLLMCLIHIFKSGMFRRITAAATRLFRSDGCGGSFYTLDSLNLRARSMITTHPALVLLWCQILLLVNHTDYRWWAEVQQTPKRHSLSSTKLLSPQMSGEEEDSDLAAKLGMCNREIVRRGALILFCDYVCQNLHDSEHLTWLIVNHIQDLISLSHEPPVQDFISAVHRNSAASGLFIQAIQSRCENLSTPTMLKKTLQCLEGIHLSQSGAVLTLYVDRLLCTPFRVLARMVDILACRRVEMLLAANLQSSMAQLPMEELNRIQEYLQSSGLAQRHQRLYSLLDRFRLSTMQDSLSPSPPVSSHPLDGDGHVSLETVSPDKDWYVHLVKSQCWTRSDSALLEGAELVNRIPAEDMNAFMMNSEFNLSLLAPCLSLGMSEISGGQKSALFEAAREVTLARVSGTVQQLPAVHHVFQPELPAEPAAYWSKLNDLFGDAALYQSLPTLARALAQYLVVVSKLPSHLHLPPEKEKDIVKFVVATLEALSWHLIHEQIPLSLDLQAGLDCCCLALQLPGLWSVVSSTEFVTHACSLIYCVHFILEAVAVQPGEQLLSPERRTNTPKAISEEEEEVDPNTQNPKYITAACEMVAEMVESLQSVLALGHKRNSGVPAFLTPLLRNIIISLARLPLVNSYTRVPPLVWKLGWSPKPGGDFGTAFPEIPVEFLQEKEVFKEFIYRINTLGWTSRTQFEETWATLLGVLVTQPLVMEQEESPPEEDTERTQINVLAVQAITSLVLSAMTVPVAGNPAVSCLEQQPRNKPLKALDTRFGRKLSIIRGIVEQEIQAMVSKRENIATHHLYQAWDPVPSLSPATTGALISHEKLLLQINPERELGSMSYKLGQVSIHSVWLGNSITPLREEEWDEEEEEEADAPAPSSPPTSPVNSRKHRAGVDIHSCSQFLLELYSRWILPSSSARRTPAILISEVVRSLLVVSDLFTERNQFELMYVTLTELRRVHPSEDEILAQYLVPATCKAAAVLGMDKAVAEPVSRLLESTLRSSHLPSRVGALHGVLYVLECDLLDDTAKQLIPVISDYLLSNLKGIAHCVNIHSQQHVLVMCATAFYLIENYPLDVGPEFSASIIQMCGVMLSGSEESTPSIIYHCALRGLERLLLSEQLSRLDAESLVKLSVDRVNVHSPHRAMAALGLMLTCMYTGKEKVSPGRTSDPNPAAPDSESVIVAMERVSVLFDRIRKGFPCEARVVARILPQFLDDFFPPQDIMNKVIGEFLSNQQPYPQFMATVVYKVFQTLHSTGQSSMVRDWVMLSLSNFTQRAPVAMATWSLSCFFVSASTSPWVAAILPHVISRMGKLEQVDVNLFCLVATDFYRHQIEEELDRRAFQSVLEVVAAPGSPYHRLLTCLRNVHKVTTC

Question: How did the IC50 turn out when `CN(c1nc2sc(-c3cnc(-c4cn[nH]c4)c4[nH]ccc34)nc2s1)C1CCNCC1` was run?
Answer: Its IC50 is ≤ 100 nM.

Question: With `Cc1cn2nc(-c3cn4cc(C5CCNCC5)nc4s3)cc(C)c2n1` as the compound, how does the IC50 read?
Answer: The IC50 was ≤ 100 nM.

Question: How did the IC50 turn out when `CN(c1nc2sc(-c3ncc(-c4cn[nH]c4)cc3O)nc2s1)C1CC(C)(C)NC(C)(C)C1` was run?
Answer: The IC50 was ≤ 100 nM.

Question: For `Cn1cc2cc(-c3nn4cc(C5CCNCC5)nc4s3)cc(C#N)c2n1`, which IC50 is on record?
Answer: Its IC50 is ≤ 100 nM.

Question: Which IC50 does the source give for `CN(c1nc2sc(-c3ncc(-c4cn[nH]c4)nn3)nc2s1)C1CC(C)(C)NC(C)(C)C1` here?
Answer: The IC50 was ≤ 100 nM.

Question: `C[C@H]1C[C@H](Oc2nc3sc(-c4ncc(-c5nnn(C)n5)c5cc[nH]c45)nc3s2)CCN1` was tested. Which IC50 did it give?
Answer: The IC50 was ≤ 100 nM.
